Experimental data from patent US20230391766A1, “1-(2-(4-CYCLOPROPYL-1H-1,2,3-TRIAZOL-1-YL)ACETYL)-4-HYDROXY-N-(BENZYL)PYRROLIDIN E-2-CARBOXAMIDE DERIVATIVES AS VHL INHIBITORS FOR THE TREATMENT OF ANEMIA AND CANCER” (Genentech, Inc., priority 2020, published 2023).
One block for each compound: values may come before it.

Assays:
VHL [1] = molecular target: T1, VHL (Homo sapiens, UniProt P40337); assay: VHL nanoBRET (+ Digitonin); assay type: cell-based
T1 construct: expressed in transfected cells
T1 sequence (P40337 whole entry): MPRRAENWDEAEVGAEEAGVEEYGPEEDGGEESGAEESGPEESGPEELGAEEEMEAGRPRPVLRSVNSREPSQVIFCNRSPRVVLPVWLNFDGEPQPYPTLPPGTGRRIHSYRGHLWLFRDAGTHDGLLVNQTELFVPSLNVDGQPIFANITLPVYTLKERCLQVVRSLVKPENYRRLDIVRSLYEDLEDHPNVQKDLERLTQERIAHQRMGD
Protocol: (§1) The VHL NanoBRET™ Target Engagement Assay analyzes the apparent affinity of test compounds for VHL in cells by competitive displacement of a VHL NanoBRET™ tracer reversibly bound to a NanoLuc® VHL fusion protein stably expressed in the cells.
(§2) 50 nL of control compound (10 mM; parental unlabeled VHL antagonist; see structure below) and 50 nL of DMSO (negative control) were dispensed into the appropriate control wells. DMSO was backfilled to a final volume of 50 nL as required. […] Max Signal control wells consisted of DMSO only treated wells. Minimum Signal control wells contained of 10 uM parental unlabeled VHL antagonist (control compound—see structure below). […] Background Signal control wells were prepared without tracer for background correction steps.
(§3) The raw BRET ratio values were calculated by dividing the acceptor emission value (610 nm) by the donor emission value (460 nm) for each sample. To correct for background, the BRET ratio in the absence of tracer (average of no-tracer control samples) was subtracted from the BRET ratio of each sample. Raw BRET units were converted to milliBRET units (mBU) by multiplying each raw BRET value by 1,000. The normalized NanoBRET™ signal was calculated relative to the Max Signal control wells (DMSO treated control wells) and the Minimum Signal control wells. Percentage inhibition was calculated relative to the Minimum Signal control and Maximum Signal control wells. IC50 values were derived by four parameter curve fitting using the Robust method.

VHL [2] = molecular target: T1, VHL; assay: VHL HEK-293 BRET Assay (VHL NanoBRET Target Engagement Assay); assay type: cell-based; details: for IC50: HEK 293 RT VHL-NanoLuc stable cells, 1 uM tracer, 2 hours, geometric mean where more than one measurement, read-out: VHL binding in cells (HEK293 nanoBRET); for Ratio cell permeability shift: ratio not defined
Protocol: as §1, §2, §3

EC50 (VHL [1]): 110 nM
IC50 (VHL [2]): 80 nM
Ratio cell permeability shift (VHL [2]): 0.74
SMILES: Cc1ncsc1-c1ccc([C@@H](NC(=O)[C@@H]2C[C@@H](O)CN2C(=O)[C@@H](n2cc(C3CC3)nn2)C(C)(C)C)C(F)(F)F)cc1 [Example S40, (2S,4R)-1-((S)-2-(4-cyclopropyl-1H-1,2,3-triazol-1-yl)-3,3-dimethylbutanoyl)-4-hydroxy-N—((R)-2,2,2-trifluoro-1-(4-(4-methylthiazol-5-yl)phenyl)ethyl)pyrrolidine-2-carboxamide]

EC50 (VHL [1]): 230 nM
IC50 (VHL [2]): 200 nM
Ratio cell permeability shift (VHL [2]): 0.86
SMILES: Cc1ncsc1-c1ccc2c(c1)CCCC[C@@H]2NC(=O)[C@@H]1C[C@@H](O)CN1C(=O)[C@@H](n1cc(C2CC2)nn1)C(C)(C)C [Example S45, (2S,4R)-1-((S)-2-(4-cyclopropyl-1H-1,2,3-triazol-1-yl)-3,3-dimethylbutanoyl)-4-hydroxy-N—((S)-2-(4-methylthiazol-5-yl)-6,7,8,9-tetrahydro-5H-benzo[7]annulen-5-yl)pyrrolidine-2-carboxamide]

EC50 (VHL [1]): 20 nM
IC50 (VHL [2]): 20 nM
Ratio cell permeability shift (VHL [2]): 1.02
SMILES: Cc1ncsc1-c1ccc(CNC(=O)[C@@H]2C[C@@H](O)CN2C(=O)[C@@H](n2cc(C3CC3)nn2)C(C)(C)c2ccccc2)cc1 [Example S26, (2S,4R)-1-((S)-2-(4-cyclopropyl-1H-1,2,3-triazol-1-yl)-3-methyl-3-phenylbutanoyl)-4-hydroxy-N-(4-(4-methylthiazol-5-yl)benzyl)pyrrolidine-2-carboxamide]

EC50 (VHL [1]): 30 nM
IC50 (VHL [2]): 30 nM
Ratio cell permeability shift (VHL [2]): 1.03
SMILES: CC(C)(C)[C@@H](C(=O)N1C[C@H](O)C[C@H]1C(=O)NCc1ccc(-c2ccccc2F)cc1)n1cc(C2CC2)nn1 [Example S43, (2S,4R)-1-((S)-2-(4-cyclopropyl-1H-1,2,3-triazol-1-yl)-3,3-dimethylbutanoyl)-N-((2′-fluoro-[1,1′-biphenyl]-4-yl)methyl)-4-hydroxypyrrolidine-2-carboxamide]

EC50 (VHL [1]): 3640 nM
IC50 (VHL [2]): 5400 nM
Ratio cell permeability shift (VHL [2]): 1.48
SMILES: Cc1cnnn1[C@H](C(=O)N1C[C@H](O)C[C@H]1C(=O)N[C@H](Cc1ccc(-c2ccccc2)cc1)C(N)=O)C(C)C [Example S32, (2S,4R)—N—((R)-3-([1,1′-biphenyl]-4-yl)-1-amino-1-oxopropan-2-yl)-4-hydroxy-1-((S)-3-methyl-2-(5-methyl-1H-1,2,3-triazol-1-yl)butanoyl)pyrrolidine-2-carboxamide]

EC50 (VHL [1]): 43700 nM
IC50 (VHL [2]): 62500 nM
Ratio cell permeability shift (VHL [2]): 1.43
SMILES: COC(=O)c1nnn([C@@H](C(=O)N2C[C@H](O)C[C@H]2C(=O)N[C@H](Cc2ccc(-c3ccccc3)cc2)C(N)=O)C(C)C)c1C (single isomer, unassigned) [Isomer A from Example S33]

EC50 (VHL [1]): 68000 nM
IC50 (VHL [2]): 68500 nM
Ratio cell permeability shift (VHL [2]): 1.01
SMILES: CC(C)[C@H](C(=O)N1C[C@H](O)C[C@H]1C(=O)N[C@H](Cc1ccc(-c2ccccc2)cc1)C(N)=O)n1nnc2ccccc21 (single isomer, unassigned) [Isomer B from Example S36]

EC50 (VHL [1]): 110 nM
IC50 (VHL [2]): 110 nM
Ratio cell permeability shift (VHL [2]): 0.93
SMILES: CC(C)[C@@H](C(=O)N1C[C@H](O)C[C@H]1C(=O)N[C@H](Cc1ccc(-c2ccccc2)cc1)C(N)=O)n1cc(-c2ccco2)nn1 [Example S39, (2S,4R)—N—((R)-3-([1,1′-biphenyl]-4-yl)-1-amino-1-oxopropan-2-yl)-1-((S)-2-(4-(furan-2-yl)-1H-1,2,3-triazol-1-yl)-3-methylbutanoyl)-4-hydroxypyrrolidine-2-carboxamide]

Second part, the compound before the results:

SMILES: CC(C)(C)[C@@H](C(=O)N1C[C@H](O)C[C@H]1C(=O)N[C@H](Cc1ccc(-c2ccccc2)cc1)C(N)=O)n1cc(C(N)=O)nn1 [Example S16, 1-((S)-1-((2S,4R)-2-(((R)-3-([1,1′-biphenyl]-4-yl)-1-amino-1-oxopropan-2-yl)carbamoyl)-4-hydroxypyrrolidin-1-yl)-3,3-dimethyl-1-oxobutan-2-yl)-1H-1,2,3-triazole-4-carboxamide]
EC50 (VHL [1]): 400 nM
IC50 (VHL [2]): 3310 nM
Ratio cell permeability shift (VHL [2]): 8.30

SMILES: Cc1ncsc1-c1ccc([C@H](C)NC(=O)[C@@H]2C[C@@H](O)CN2C(=O)[C@@H](n2cc(C3CC3)nn2)C23CC4CC(CC(C4)C2)C3)cc1 [Example S20, (2S,4R)-1-((2S)-2-(adamantan-1-yl)-2-(4-cyclopropyl-1H-1,2,3-triazol-1-yl)acetyl)-4-hydroxy-N—((S)-1-(4-(4-methylthiazol-5-yl)phenyl)ethyl)pyrrolidine-2-carboxamide]
EC50 (VHL [1]): 10 nM
Ratio cell permeability shift (VHL [2]): 0.54

SMILES: Cc1ncsc1-c1ccc([C@H](C)NC(=O)[C@@H]2C[C@@H](O)CN2C(=O)[C@H](C2CCCCC2)n2cc(C3CC3)nn2)cc1 [Example S19, (2S,4R)-1-((S)-2-cyclohexyl-2-(4-cyclopropyl-1H-1,2,3-triazol-1-yl)acetyl)-4-hydroxy-N—((S)-1-(4-(4-methylthiazol-5-yl)phenyl)ethyl)pyrrolidine-2-carboxamide]
EC50 (VHL [1]): < 5 nM
IC50 (VHL [2]): < 5 nM
Ratio cell permeability shift (VHL [2]): ~1

SMILES: Cc1ncsc1-c1ccc([C@H](C)NC(=O)[C@@H]2C[C@@H](O)CN2C(=O)[C@@H](n2cc(C3CC3)nn2)C(C)(C)C)cc1 [Example S18, (2S,4R)-1-((S)-2-(4-cyclopropyl-1H-1,2,3-triazol-1-yl)-3,3-dimethylbutanoyl)-4-hydroxy-N—((S)-1-(4-(4-methylthiazol-5-yl)phenyl)ethyl)pyrrolidine-2-carboxamide]
EC50 (VHL [1]): 10 nM
IC50 (VHL [2]): 10 nM
Ratio cell permeability shift (VHL [2]): 0.85

SMILES: CCC(C)(C)[C@@H](C(=O)N1C[C@H](O)C[C@H]1C(=O)N[C@H](Cc1ccc(-c2ccccc2)cc1)C(N)=O)n1cc(C2CC2)nn1 [Example S6, (2S,4R)—N—((R)-3-([1,1′-biphenyl]-4-yl)-1-amino-1-oxopropan-2-yl)-1-((S)-2-(4-cyclopropyl-1H-1,2,3-triazol-1-yl)-3,3-dimethylpentanoyl)-4-hydroxypyrrolidine-2-carboxamide]
EC50 (VHL [1]): 140 nM
IC50 (VHL [2]): 100 nM
Ratio cell permeability shift (VHL [2]): 0.76

SMILES: CC(C)(C)[C@@H](C(=O)N1C[C@H](O)C[C@H]1C(=O)N[C@H](Cc1ccc(-c2ccccc2)cc1)C(N)=O)n1cc(C(=O)O)nn1 [Example S15, 1-((S)-1-((2S,4R)-2-(((R)-3-([1,1′-biphenyl]-4-yl)-1-amino-1-oxopropan-2-yl)carbamoyl)-4-hydroxypyrrolidin-1-yl)-3,3-dimethyl-1-oxobutan-2-yl)-1H-1,2,3-triazole-4-carboxylic acid]
EC50 (VHL [1]): 610 nM
IC50 (VHL [2]): 69800 nM
Ratio cell permeability shift (VHL [2]): 115.18

SMILES: CC(=O)NCC1(c2cn([C@@H](C(=O)N3C[C@H](O)C[C@H]3C(=O)N[C@H](Cc3ccc(-c4ccccc4)cc3)C(N)=O)C(C)(C)C)nn2)CC1 [Example S12, (2S,4R)—N—((R)-3-([1,1′-biphenyl]-4-yl)-1-amino-1-oxopropan-2-yl)-1-((R)-2-(4-(1-(acetamidomethyl)cyclopropyl)-1H-1,2,3-triazol-1-yl)-3,3-dimethylbutanoyl)-4-hydroxypyrrolidine-2-carboxamide]
EC50 (VHL [1]): 24500 nM
IC50 (VHL [2]): > 100000 nM

SMILES: C=CC(C)(C)[C@@H](C(=O)N1C[C@H](O)C[C@H]1C(=O)N[C@H](Cc1ccc(-c2ccccc2)cc1)C(N)=O)n1cc(C2CC2)nn1 [Example S7, (2S,4R)—N—((R)-3-([1,1′-biphenyl]-4-yl)-1-amino-1-oxopropan-2-yl)-1-((S)-2-(4-cyclopropyl-1H-1,2,3-triazol-1-yl)-3,3-dimethylpent-4-enoyl)-4-hydroxypyrrolidine-2-carboxamide]
EC50 (VHL [1]): 160 nM
IC50 (VHL [2]): 110 nM
Ratio cell permeability shift (VHL [2]): 0.68

SMILES: NC(=O)[C@@H](Cc1ccc(-c2ccccc2)cc1)NC(=O)[C@@H]1C[C@@H](O)CN1C(=O)[C@H](C1CCC1)n1cc(C2CC2)nn1 [Example S4, (2S,4R)—N—((R)-3-([1,1′-biphenyl]-4-yl)-1-amino-1-oxopropan-2-yl)-1-((S)-2-cyclobutyl-2-(4-cyclopropyl-1H-1,2,3-triazol-1-yl)acetyl)-4-hydroxypyrrolidine-2-carboxamide]
EC50 (VHL [1]): 200 nM
IC50 (VHL [2]): 190 nM
Ratio cell permeability shift (VHL [2]): 0.96

SMILES: CCC(C)(C)[C@@H](C(=O)N1C[C@H](O)C[C@H]1C(=O)N[C@@H](C)c1ccc(-c2scnc2C)cc1)n1cc(C2CC2)nn1 [Example S21, (2S,4R)-1-((S)-2-(4-cyclopropyl-1H-1,2,3-triazol-1-yl)-3,3-dimethylpentanoyl)-4-hydroxy-N—((S)-1-(4-(4-methylthiazol-5-yl)phenyl)ethyl)pyrrolidine-2-carboxamide]
EC50 (VHL [1]): 10 nM
Ratio cell permeability shift (VHL [2]): 0.67

SMILES: CC(=O)NCC1(c2cn([C@H](C(=O)N3C[C@H](O)C[C@H]3C(=O)N[C@H](Cc3ccc(-c4ccccc4)cc3)C(N)=O)C(C)(C)C)nn2)CC1 [Example S13, (2S,4R)—N—((R)-3-([1,1′-biphenyl]-4-yl)-1-amino-1-oxopropan-2-yl)-1-((S)-2-(4-(1-(acetamidomethyl)cyclopropyl)-1H-1,2,3-triazol-1-yl)-3,3-dimethylbutanoyl)-4-hydroxypyrrolidine-2-carboxamide]
EC50 (VHL [1]): 220 nM
IC50 (VHL [2]): 2270 nM
Ratio cell permeability shift (VHL [2]): 10.22
